Where a SMILES comes first, the peptide text is derived from it. Bridges are numbered along the chain shown (N, C = ends).
How the values were obtained:
[1] = system: baculovirus expressing luciferase under the control of the CMV promoter; assay type: cell-based; conditions: luciferase reporter gene expression in HEK293 cells transduced with baculovirus-luc, MOI 5, 24 h post-infection; 1:3 peptide dilution series; non-linear regression; n = 8
Method: A baculovirus expressing luciferase under the control of the CMV promoter has been described previously. HEK293 cells were seeded at a density of 2 × 10^4 cells/100 µL per well in 96-well plates (Sarstedt, Germany). On the next day, cells were treated with a 1:3 dilution series of peptides and, without further pre-incubation, subsequently infected with baculovirus–luc at a multiplicity of infection (MOI) of 5. Cells were lysed 24 h post-infection using 20 µL Cell Culture Lysis Reagent (Promega, Mannheim, Germany). From the lysates, 10 µL was transferred to white 96-well plates, and luciferase was recorded using a luciferase assay system and a GloMax®-Multi Detection System (Promega, Mannheim, Germany).

HEK293 cells = assay: Cell viability assay (CellTiter-Blue) in HEK293 cells; assay type: cell-based; conditions: 72 h at 37 °C, 3-fold dilution series starting with 20 µM, triplicate, non-linear regression (curve fit)
Method: HEK293 cells were seeded at a density of 2.5 × 10^3 cells/100 µL per well in a 96-well plate (Sarstedt, Germany). In addition, a serial 1:2 dilution of the cell suspension was added to each plate to generate a standard curve. On the next day, cells were treated with serial 1:3 peptide dilutions in triplicate and incubated for 72 h at 37 °C. Then, 20 µL of CellTiter-Blue® Cell Viability Assay (Promega, Mannheim, Germany) was added to each well and incubated at 37 °C for a further 1–2 h. Fluorescence was recorded using a GloMax®-Multi Detection System (Promega, Mannheim, Germany). The percentage of viable cells was calculated from the cell dilution series from each plate by linear regression analysis. The selectivity index was calculated using the following formula: SI = CC50/IC50.
Figure S1. Cell viability assay in HEK293 cells in the presence of peptides. Cells were incubated with 3 -fold dilution series of peptides starting with a concentration of 20 µM for 72 hours and measured using the Cell Titer Blue assay. Curve fitting of % viable cells of untrea ted control was performed using Graph Pad Prism softwar e.
(1 picture or pasted object on this page, not shown here)

[2] = system: MCMV strain delm157-luc rep; assay type: cell-based, mouse cytomegalovirus; conditions: luciferase reporter gene expression in NIH/3T3 cells infected with replication-competent MCMV, MOI 0.5, 72 h post-infection; 1:3 dilution series; non-linear regression; n = 9
Method: NIH/3T3 cells were seeded at a density of 2 × 10^4 cells/100 µL per well in a 96-well plate (Sarstedt, Germany) and allowed to attach overnight. On the next day, cells were treated with a 1:3 dilutions series of peptides and, without further pre-incubation, subsequently infected with the MCMV strain delm157-luc rep. The MCMV stock was prepared and quantified as previously described. The virus (MOI 0.5 for luc assays; for other assays, see the specific descriptions) was adsorbed to cells with the aid of centrifugal enhancement twice at 800× g for 15 min at room temperature and incubated at 37 °C for the indicated times. For the luciferase assays, the infected cells were lysed 72 h post-infection using 20 µL Cell Culture Lysis Reagent (Promega, Mannheim, Germany). From the lysates, 10 µL was transferred to white 96-well plates, and luciferase was recorded using a Luciferase Assay System and a GloMax®-Multi Detection System (Promega, Mannheim, Germany).

[3] = system: human red blood cells (RBCs); assay: Hemolysis assay with red blood cells; assay type: cell-based; conditions: 1 h at 37 °C; for hemolysis of human RBCs: peptide dilutions in PBS or PBS + 10% donor serum, concentrations < 20 µM (1:2 dilutions), OD 450 nm of supernatants, n = 6; for swelling of RBCs (pellet size after centrifugation): peptide dilutions prepared in PBS, up to 20 µM
Method: Blood from healthy volunteers was collected by venipuncture (Greiner Bio-One, Kremsmünster, Austria) into K2E K2EDTA VacuetteTM tubes (Greiner Bio-One, Kremsmünster, Austria) with 4 mL blood. The assay for hemolysis was adapted from Sæbo et al.. Blood was centrifuged at 1000× g for 10 min, and plasma was kept for further use. Red blood cells were then resuspended in 10 mL PBS and centrifuged again at 1000× g for a total of three times. Cells were then counted using a hemocytometer and seeded at a cell number of 1 × 10^7 cells/100 µL PBS per well in conical 96-well plates (ThermoFisher, Darmstadt, Germany). Next, 1:2 peptide dilutions starting from 40 µM either in PBS or 10% donor serum were prepared, and 100 µL was added to 100 µL of RBC. Plates were then incubated for one hour at 37 °C. As the positive control, three wells with 100 µL RBCs were treated with 100 µL PBS + 0.5% Triton X-100. After incubation, plates were centrifuged at 1000× g for 5 min and supernatants were transferred to flat 96-well plates. Optical density (OD) was determined at 450 nm using a GloMax®-Multi Detection System (Promega, Mannheim, Germany). Images from RBCs from light microscopy and centrifuged plates were taken using an iPhone 12 mini.

Structure (SMILES)	IC50 [1]	HEK293 CC50 (HEK293 cells)	IC50 [2]	hemolysis of human RBCs [3]	swelling of RBCs (pellet size after centrifugation) [3]
CSCC[C@H](NC(=O)[C@H](Cc1ccccc1)NC(=O)[C@H](CCCNC(=N)N)NC(=O)[C@H](C)NC(=O)[C@H](Cc1ccc(O)cc1)NC(=O)[C@H](Cc1ccccc1)NC(=O)[C@H](C)NC(=O)[C@H](CC(C)C)NC(=O)[C@H](C)NC(=O)[C@H](CCC(N)=O)NC(=O)[C@@H]1CCCN1C(=O)[C@@H]1CCCN1C(=O)[C@H](CCCNC(=N)N)NC(=O)[C@H](CCCNC(=N)N)NC(=O)[C@H](CCCNC(=N)N)NC(=O)[C@H](CCC(N)=O)NC(=O)[C@H](CCCNC(=N)N)NC(=O)[C@H](CCCNC(=N)N)NC(=O)[C@H](CCCCN)NC(=O)[C@H](CCCCN)NC(=O)[C@H](CCCNC(=N)N)NC(=O)CN)C(=O)O [C14A, C20R, C22M] (H-GRKKRRQRRRPPQALAFYARFM-OH)	0.58 µM	63 µM	3.59 µM	neither induce hemolysis	reduced swelling
CC(C)C[C@@H]1NC(=O)[C@@H](NC(=O)[C@H](CCC(N)=O)NC(=O)[C@@H]2CCCN2C(=O)[C@@H]2CCCN2C(=O)[C@H](CCCNC(=N)N)NC(=O)[C@H](CCCNC(=N)N)NC(=O)[C@H](CCCNC(=N)N)NC(=O)[C@H](CCC(N)=O)NC(=O)[C@H](CCCNC(=N)N)NC(=O)[C@H](CCCNC(=N)N)NC(=O)[C@H](CCCCN)NC(=O)[C@H](CCCCN)NC(=O)[C@H](CCCNC(=N)N)NC(=O)CN)CSSC[C@@H](C(=O)N[C@@H](Cc2ccccc2)C(=O)O)NC(=O)[C@H](C)NC(=O)[C@H](Cc2ccc(O)cc2)NC(=O)[C@H](Cc2ccccc2)NC(=O)[C@H](C)NC1=O [C22del_cyc] (H-GRKKRRQRRRPPQCLAFYACF-OH; disulfide 14-20)	1.41 µM		12.2 µM	neither induce hemolysis	reduced swelling

— publication PMC11477294, “In Vitro Profiling of the Antiviral Peptide TAT-I24” (International Journal of Molecular Sciences, 2024)
